According to PubChem BioAssay (NCI):
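These data come from cells grown in 96-well plates and exposed to compound for 48 hours at five concentrations. Definition used: TGI = concentration required for complete inhibition of growth.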

Experiments:
Test in all cases: growth of human tumour cells (NCI), 48 h
[1] = system: A549 NSCLC
[2] = system: BT-549 breast
[3] = system: HL-60(TB) leukemia
[4] = system: HT29 colon
[5] = system: MDA-MB-231 breast
[6] = system: MOLT-4 leukemia
[7] = system: NCI-H460 lung
[8] = system: NCI-H522 lung
[9] = system: OVCAR-8 ovarian
[10] = system: SF-295 CNS

Row | SMILES | TGI [1] | TGI [2] | TGI [3] | TGI [4] | TGI [5] | TGI [6] | TGI [7] | TGI [8] | TGI [9] | TGI [10]
1 | CC(=O)OCC1OC(n2c(N)c(C#N)c(-c3ccccc3)c(C#N)c2=S)C(OC(C)=O)C(OC(C)=O)C1OC(C)=O (stereo unspecified) | > 100 µM | > 100 µM | > 100 µM | > 100 µM | > 100 µM | > 100 µM | > 100 µM | > 100 µM | > 100 µM | > 93 µM
2 | CC[N+]1(C)CCC(O)(c2ccc(Cl)cc2)C(C(=O)c2ccc(Cl)cc2)C1 (stereo unspecified) |  |  | > 100 µM | 94.4 µM | 40.5 µM | 41.2 µM | 63.8 µM | 3.51 µM | > 100 µM | 
3 | Cc1c(-c2cc3n(n2)C(c2cccs2)C(C#N)=C(c2ccccc2)N3)c(=O)n(-c2ccccc2)n1C (stereo unspecified) | > 100 µM |  | > 100 µM | > 100 µM |  | > 100 µM | > 100 µM | > 100 µM | > 100 µM | > 100 µM
4 | COc1ccc(Cc2nc3cc(C(F)(F)F)ccc3n2CCCN(C)C)cc1 | 38.9 µM | 43.4 µM | 27.1 µM | 39.9 µM | 64.6 µM | 16.3 µM | 46.7 µM | 31.8 µM | > 100 µM | 37.5 µM
5 | C=C1c2c(cc3c(c2O)c(=O)c2ccccc2n3C)OC1(C)C |  |  | > 100 µM | > 100 µM |  | > 100 µM | > 100 µM | 9.49 µM | > 100 µM | > 100 µM
6 | O=C1NC2(CCCCC2)N=C2C(Cl)CCCC12Cl (stereo unspecified) | > 100 µM | > 100 µM | > 100 µM | > 100 µM | > 100 µM | > 100 µM | > 100 µM | > 100 µM | > 100 µM | > 100 µM
7 | Cc1nc2c(o1)C(=O)c1ccccc1/C2=N/c1ccccn1 | > 100 µM | 32.2 µM | 44.2 µM | 41.3 µM | 69.3 µM | 43.2 µM | 29.8 µM | 35.9 µM | 31.1 µM | > 100 µM
8 | CC(C)OP(=O)(CN(C)/C(F)=N\C(F)(F)F)OC(C)C | > 100 µM | > 100 µM | > 100 µM | > 100 µM | > 100 µM | > 100 µM | > 100 µM | > 100 µM | > 100 µM | > 100 µM
9 | N#Cc1[nH]c(=O)n(-c2ccc(Cl)cc2)c1N | > 10 µM | > 10 µM | > 10 µM | > 10 µM | > 10 µM | > 10 µM | > 10 µM | > 10 µM | > 10 µM | > 10 µM
10 | O=P(O)(O)C(O)/C=C/c1ccccc1 (stereo unspecified) | > 100 µM | > 100 µM | > 100 µM | > 100 µM | > 100 µM | > 100 µM | > 100 µM | > 100 µM | > 100 µM | > 100 µM
11 | CC(=O)Nc1ccc(CNc2cc(=O)[nH]c(=O)[nH]2)cc1 | > 100 µM | > 100 µM | > 100 µM | > 100 µM | > 100 µM | > 100 µM | > 100 µM | > 100 µM | > 100 µM | > 100 µM
12 | CCOc1ccc2c(c1)/C(=C(\C(Cl)=C(Cl)Cl)[N+](=O)[O-])N2 | > 100 µM | > 100 µM |  | > 100 µM | > 100 µM | > 100 µM | > 100 µM |  | > 100 µM | > 100 µM
13 | Cc1cccc(Nc2cn(COCc3ccccc3)c(=O)[nH]c2=O)c1 | > 100 µM | > 100 µM | > 100 µM | > 100 µM |  | > 100 µM | > 100 µM | 97.2 µM |  | > 100 µM
14 | Cc1csc2nc(-c3ccc([N+](=O)[O-])cc3)c(/C=N/N=C(N)N)n12 | 3.2 µM | 0.211 µM | 4.49 µM | 3.21 µM | 3.52 µM |  | 3.43 µM | 3.08 µM | 2.68 µM | 3.24 µM
15 | CCc1n[nH]c(=O)n1N1C(=O)C2CC=CCC2C1=O (stereo unspecified) | > 100 µM | > 100 µM |  | > 100 µM | > 100 µM | > 100 µM | > 100 µM | > 100 µM | > 100 µM | > 100 µM
16 | CC1CCCC2=C1C(c1ccc(Cl)cc1)n1c(s/c(=C\c3ccc(Cl)cc3)c1=O)=N2 (stereo unspecified) | > 100 µM | > 100 µM |  | > 100 µM | > 100 µM |  |  |  | > 100 µM | 
17 | CCC1CC2CN3CCc4c([nH]c5c(-c6c(OC)ccc7c8c([nH]c67)[C@]6(C(=O)OC)CC7CC(CC)C6N(CC8)C7)c(O)ccc45)[C@](C(=O)OC)(C2)C13 (stereo partly specified) | 36.9 µM | 33.7 µM |  | 18.6 µM | 47.1 µM | 16.7 µM | 29.2 µM | 31.6 µM | 49.7 µM | 36.1 µM
18 | NC(=O)CCC(NCc1c2ccccc2[n+]([O-])c2ccccc12)C(=O)O (stereo unspecified) | > 100 µM |  | 74.1 µM | > 100 µM |  | > 100 µM | > 100 µM | > 100 µM | > 100 µM | > 100 µM
19 | CC(C)(C)[Si](C)(C)OCCCC#CCO | > 100 µM |  | 70.9 µM | > 100 µM |  | > 100 µM | > 100 µM | > 100 µM | > 100 µM | > 100 µM
20 | CC(=O)Nc1ncc(Sc2ccccc2C(=O)O)s1 | > 100 µM | > 100 µM | > 100 µM | > 100 µM | > 100 µM | > 100 µM | > 100 µM |  | > 100 µM | > 100 µM
21 | O=C(c1cc(Cl)cc(Cl)c1)N(C(=S)OC12CC3CC(CC(C3)C1)C2)c1ccccc1 | > 100 µM | > 100 µM | 84.5 µM | > 100 µM | > 100 µM |  | > 100 µM | 62.3 µM | > 100 µM | > 100 µM
22 | COc1cc(N=NN(C)C)c(C(C)c2c3cc(OC)c(OC)cc3cc[n+]2C)cc1OC (stereo unspecified) | > 100 µM | > 100 µM |  | > 100 µM | 77 µM | > 100 µM | > 100 µM |  | > 100 µM | > 100 µM
23 | O=C1c2cc3ccccc3cc2C2(c3ccc(Cl)cc3)N[C@H]3CCCC[C@@H]3N12 (stereo partly specified) | 36.3 µM | 36.9 µM | 55.6 µM | 53.5 µM | 36.2 µM | > 100 µM | 47.3 µM |  | 19.4 µM | 32.4 µM
